Patent US6964979B2, “R-enantiomers of pyranoindole derivatives and the use thereof for the treatment of hepatitis C virus infection or disease” (Wyeth, priority 2002, dated 2005)

Molecular target: T1, HCV RdRp NS5B d21BK (BK strain, 1b subtype) (Hepatitis C virus genotype 1b, UniProt P26663)
T1 construct: NS5B from the BK strain (1b subtype) is expressed in E. coli as a protein in which the 21 C-terminal amino acids are replaced; made in house; host or cells: E. coli
Experiment: Hepatitis C polymerase (NS5B RdRp) inhibition, 33P-GTP incorporation filter assay
Type: biochemical
Settings: NS5B d21BK 24 nM, 2 hours at room temperature; read-out: HCV pol IC50
Source text: The ability of the compounds of the present invention to inhibit Hepatitis C Polymerase was established by the following experimental procedure:
NS5B from the BK strain (1b subtype) is expressed in E. coli as a protein in which the 21 C-terminal amino acids are replaced with a short linker and a hexahistidine tag ([…]). The purified protein is mixed with radioactive nucleotides and allowed to replicate a heteropolymeric RNA substrate, primed by an endogenous short hairpin, resulting in an approximately 760 nt product. The radioactive product is captured on a filter and quantitated after removal of the unincorporated nucleotides.
(1) Compounds 10 μl at 10 μg/ml in 15% dimethylsulfoxide (DMSO)
• When starting from 100 μg/ml compound stock in […]: • Dispense 5 μl 30% DMSO per well • Dispense 5 μl compound (100 μg/ml) per well. • When starting from 50 μg/ml compound stock in 15% DMSO: • Add 10 μl compound per well. (2) Enzyme Mix:
Add 20 μl enzyme mix into each well of the assay plate. Incubate compound and enzyme at room temperature for 15 minutes. (3) Template Mix—Prepare Ahead
Spin down a tube of RNA (5 μg/tube stored in 75% ethanol and 0.3 M sodium acetate) in a microcentrifuge for 20 minutes. at 4° C. One tube is enough for 1-1.5 plates. Remove as much ethanol from the tube as possible by inverting the tube. Be gentle, pellet RNA may not adhere to the tube. Vacuum dry the RNA. Resuspend the RNA by adding 1 ml of DEPC water, close the cap of the tube tightly. To dissolve RNA, incubate RNA solution on ice for ˜60 minutes and gently vortex. Spin briefly to ensure all RNA solution is down to the bottom of the tube before opening cap. Gently transfer RNA solution into a 5 ml or larger tube. Add another 3 ml of DEPC water (total 4 ml of volume).
Add the following volumes of reagents
Add 20 μl template mix per reaction (i.e. 20 ng of pOF per reaction or ˜3 nM) (4) Incubate reaction at room temperature (22-25° C.) for 2 hours. (5) Stop reaction by adding 50 μl of 170 mM EDTA. • Final concentration of EDTA is 85 mM. (6) Prewet filters of Millipore multiscreen assay plate by adding 200 μl of 0.5 M sodium phosphate buffer, pH 7.0 into each well. Let stand at room temperature for 2-3 minutes. (7) Place the multiscreen filter plate onto a Millipore Manifold and turn on vacuum to allow buffer to flow through. Turn off vacuum. Transfer 80 μl of the reaction product into each well of the filter plate. Let stand for 2-3 minutes. Turn on vacuum to filter reaction product. (8) Turn off vacuum. Add. 200 μl of 0.5 M sodium phosphate buffer, pH 7.0 into each well to wash filter. […]
Percent inhibition is calculated after background subtraction as a percent reduction of activity relative to the positive control (average value of the plate excluding the negative controls). […]

T1 sequence (P26663 2420-2989): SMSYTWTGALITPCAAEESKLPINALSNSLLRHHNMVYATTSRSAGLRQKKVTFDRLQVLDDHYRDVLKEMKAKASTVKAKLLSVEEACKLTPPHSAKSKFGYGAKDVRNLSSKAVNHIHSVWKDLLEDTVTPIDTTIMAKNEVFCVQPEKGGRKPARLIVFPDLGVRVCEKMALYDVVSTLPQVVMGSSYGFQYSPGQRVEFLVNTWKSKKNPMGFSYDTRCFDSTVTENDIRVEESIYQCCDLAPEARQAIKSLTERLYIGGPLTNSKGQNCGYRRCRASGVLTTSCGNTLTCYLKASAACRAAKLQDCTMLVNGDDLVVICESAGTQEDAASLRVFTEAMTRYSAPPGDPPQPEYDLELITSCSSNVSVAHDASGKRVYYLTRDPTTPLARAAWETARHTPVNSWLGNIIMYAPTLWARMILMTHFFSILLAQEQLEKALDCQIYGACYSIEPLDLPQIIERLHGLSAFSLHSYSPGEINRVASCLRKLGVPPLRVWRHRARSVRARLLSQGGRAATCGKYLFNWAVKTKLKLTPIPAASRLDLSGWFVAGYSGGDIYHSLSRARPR

Structure (SMILES) | IC50
CCC[C@]1(CC(=O)O)OCCc2c1[nH]c1c(C)ccc(C#N)c21 [Example 1, [(R)-5-cyano-8-methyl-1-propyl-1,3,4,9-tetrahydropyrano[3,4-b]indol-1-yl]acetic acid] | 330 nM
CCC[C@]1(CC(=O)O)OCCc2c1[nH]c1c(F)ccc(C#N)c21 [Example 2, [(R)-5-cyano-8-fluoro-1-propyl-1,3,4,9-tetrahydropyrano[3,4-b]indol-1-yl]acetic acid] | 440 nM
CCC[C@]1(CC(=O)O)OCCc2c1[nH]c1c(Cl)ccc(Cl)c21 [Example 3, [(R)-5,8-dichloro-1-propyl-1,3,4,9-tetrahydropyrano[3,4-b]indol-1-yl]acetic acid] | 60 nM
CCC[C@]1(CC(=O)O)OCCc2c1[nH]c1c(C)cc(F)c(C#N)c21 [Example 4, [(R)-5-cyano-6-fluoro-8-methyl-1-propyl-1,3,4,9-tetrahydropyrano [3,4-b]indol-1-yl]acetic acid] | 80 nM
